Assay results: ChEMBL document CHEMBL1201862, “PubChem BioAssay data set” (2004)
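48-hour exposure; five concentrations; linearly interpolated endpoints. GI50 marks 50% less growth.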 Active and inactive are the calls of the source. Cut-off read from the data, not from the text of the source: active = GI50 up to about 1.1 µM and inactive = higher.

What was measured:
Assay in all cases: DTP human tumour cell line panel, 48 h
HOP-92 = system: HOP-92
SNB-75 = system: SNB-75
SN12C = system: SN12C
SR = system: SR
NCI-H226 = system: NCI-H226
SK-MEL-2 = system: SK-MEL-2
OVCAR-3 = system: OVCAR-3
IGROV-1 = system: IGROV-1
CAKI-1 = system: CAKI-1
SF-295 = system: SF-295
NCI-H522 = system: NCI-H522
HL-60 = system: HL-60
TK-10 = system: TK-10
NCI-H460 = system: NCI-H460
SK-MEL-5 = system: SK-MEL-5
T47D = system: T47D
PC-3 = system: PC-3
MCF7 = system: MCF7
Hs-578T = system: Hs-578T
BT-549 = system: BT-549

| SMILES | GI50 (HOP-92) | GI50 (SNB-75) | GI50 (SN12C) | GI50 (SR) | GI50 (NCI-H226) | GI50 (SK-MEL-2) | GI50 (OVCAR-3) | GI50 (IGROV-1) | GI50 (CAKI-1) | GI50 (SF-295) | GI50 (NCI-H522) | GI50 (HL-60) | GI50 (TK-10) | GI50 (NCI-H460) | GI50 (SK-MEL-5) | GI50 (T47D) | GI50 (PC-3) | GI50 (MCF7) | GI50 (Hs-578T) | GI50 (BT-549) |
| --- | --- | --- | --- | --- | --- | --- | --- | --- | --- | --- | --- | --- | --- | --- | --- | --- | --- | --- | --- | --- |
| O=c1nc(-c2ccccc2)c2c3c(cccn13)CCC2 | > 100 µM (inactive) | 21.8 µM (inactive) | > 100 µM (inactive) | > 100 µM (inactive) | 54 µM (inactive) | > 100 µM (inactive) | > 100 µM (inactive) | > 100 µM (inactive) | > 100 µM (inactive) | > 100 µM (inactive) | > 100 µM (inactive) | > 100 µM (inactive) | > 100 µM (inactive) | > 100 µM (inactive) | > 100 µM (inactive) | – | – | – | – | – |
| COc1ccc(C(O)C(c2ccc(OCc3ccccc3)cc2)c2ccc(OCc3ccccc3)cc2)cc1 (stereo not drawn) | > 100 µM (inactive) | > 100 µM (inactive) | > 100 µM (inactive) | > 100 µM (inactive) | > 100 µM (inactive) | > 100 µM (inactive) | > 100 µM (inactive) | > 100 µM (inactive) | > 100 µM (inactive) | > 100 µM (inactive) | > 100 µM (inactive) | > 100 µM (inactive) | > 100 µM (inactive) | > 100 µM (inactive) | > 100 µM (inactive) | – | – | – | – | – |
| Sc1nnc(COc2ccc(Cl)cc2)n1-c1ccccc1 | > 100 µM (inactive) | > 100 µM (inactive) | > 100 µM (inactive) | – | > 100 µM (inactive) | > 100 µM (inactive) | > 100 µM (inactive) | > 100 µM (inactive) | 17.5 µM (inactive) | > 100 µM (inactive) | 5.4 µM (inactive) | > 100 µM (inactive) | > 100 µM (inactive) | > 100 µM (inactive) | – | 30.4 µM (inactive) | > 100 µM (inactive) | > 100 µM (inactive) | – | – |
| Cc1cccc(C(C)(C)C)c1NC(=O)CC1C(=O)Nc2ccccc2[S+]1[O-] (stereo not drawn) | 68.7 µM (inactive) | 54.2 µM (inactive) | 55.8 µM (inactive) | 24.9 µM (inactive) | 69.3 µM (inactive) | 49.3 µM (inactive) | 49.7 µM (inactive) | – | 39.3 µM (inactive) | 62.8 µM (inactive) | 39.4 µM (inactive) | 20.9 µM (inactive) | 46.5 µM (inactive) | 54.1 µM (inactive) | – | – | – | – | – | – |
| O=C(O/N=C1/CCC/C1=C\c1ccccc1)c1ccc(Cl)cc1 | 64.3 µM (inactive) | 21.7 µM (inactive) | > 58.6 µM (inactive) | > 82.4 µM (inactive) | > 95.7 µM (inactive) | > 100 µM (inactive) | 36 µM (inactive) | > 46.5 µM (inactive) | > 52.1 µM (inactive) | 42 µM (inactive) | > 58.2 µM (inactive) | > 56.1 µM (inactive) | 38.9 µM (inactive) | > 31.6 µM (inactive) | > 100 µM (inactive) | – | – | – | – | – |
| C=CC(Cl)(CBr)CCC(Br)=C(C)C (stereo not drawn) | 16.9 µM (inactive) | 41.5 µM (inactive) | 16.9 µM (inactive) | 21.7 µM (inactive) | 44.8 µM (inactive) | 16.6 µM (inactive) | 24.5 µM (inactive) | 12.1 µM (inactive) | 9.31 µM (inactive) | 35.9 µM (inactive) | 16.9 µM (inactive) | – | 26.3 µM (inactive) | 18.9 µM (inactive) | 17.1 µM (inactive) | – | 21.3 µM (inactive) | 14.2 µM (inactive) | 28.2 µM (inactive) | 21.5 µM (inactive) |
| CCOCCOC(=O)C1CCC(=O)N1CN(C(C)=O)c1cc(OC)ccc1OC (stereo not drawn) | > 100 µM (inactive) | > 100 µM (inactive) | > 100 µM (inactive) | 1 µM (active) | > 100 µM (inactive) | > 100 µM (inactive) | > 100 µM (inactive) | > 100 µM (inactive) | > 100 µM (inactive) | > 100 µM (inactive) | > 100 µM (inactive) | – | > 100 µM (inactive) | > 100 µM (inactive) | > 100 µM (inactive) | > 100 µM (inactive) | > 100 µM (inactive) | > 100 µM (inactive) | > 100 µM (inactive) | – |
| O=C1Nc2ccccc2/C1=N/NC(=S)Nc1cccc(Cl)c1 | 18.7 µM (inactive) | – | 14.4 µM (inactive) | 1.73 µM (inactive) | 18 µM (inactive) | 22 µM (inactive) | 2.68 µM (inactive) | 17.2 µM (inactive) | 8.3 µM (inactive) | 4.81 µM (inactive) | 21.9 µM (inactive) | 8.87 µM (inactive) | 31.4 µM (inactive) | 5.52 µM (inactive) | 4.57 µM (inactive) | 48.9 µM (inactive) | 8.02 µM (inactive) | 8.43 µM (inactive) | 33.4 µM (inactive) | – |
| [N-]=[N+]=Nc1ccccc1-[n+]1noc([O-])c1Br | > 100 µM (inactive) | > 100 µM (inactive) | > 100 µM (inactive) | > 100 µM (inactive) | > 100 µM (inactive) | > 100 µM (inactive) | > 100 µM (inactive) | > 100 µM (inactive) | > 100 µM (inactive) | > 100 µM (inactive) | > 100 µM (inactive) | > 100 µM (inactive) | > 100 µM (inactive) | > 100 µM (inactive) | > 100 µM (inactive) | – | – | – | – | – |
| COc1cc(C(C)O)c[n+](Cc2ccccc2)c1 (stereo not drawn) | > 100 µM (inactive) | > 100 µM (inactive) | > 40.5 µM (inactive) | > 100 µM (inactive) | > 100 µM (inactive) | > 100 µM (inactive) | > 100 µM (inactive) | > 100 µM (inactive) | > 100 µM (inactive) | > 100 µM (inactive) | > 100 µM (inactive) | > 100 µM (inactive) | > 100 µM (inactive) | > 100 µM (inactive) | > 100 µM (inactive) | – | – | – | – | – |
| COc1ccc2nc(-c3ccc(OC(=O)N(C)C)cc3)cn2c1 | > 100 µM (inactive) | > 100 µM (inactive) | > 100 µM (inactive) | 38.9 µM (inactive) | > 100 µM (inactive) | > 100 µM (inactive) | > 100 µM (inactive) | > 100 µM (inactive) | > 100 µM (inactive) | 85.5 µM (inactive) | 36 µM (inactive) | > 100 µM (inactive) | > 100 µM (inactive) | 36 µM (inactive) | > 100 µM (inactive) | 71.4 µM (inactive) | > 100 µM (inactive) | > 100 µM (inactive) | > 100 µM (inactive) | – |
| CC1=NN(C(=O)c2ccc([N+](=O)[O-])cc2)C(=O)C1/N=N/c1ccccc1C(=O)O (stereo not drawn) | 45 µM (inactive) | 51.2 µM (inactive) | > 100 µM (inactive) | > 10 µM (inactive) | 32.1 µM (inactive) | > 100 µM (inactive) | > 100 µM (inactive) | > 100 µM (inactive) | > 100 µM (inactive) | > 100 µM (inactive) | 79.4 µM (inactive) | 90.2 µM (inactive) | > 100 µM (inactive) | > 100 µM (inactive) | > 100 µM (inactive) | – | – | – | – | – |
| COc1cc(C2C3C=CC=C4CC=CC(=C43)C3CCC(=O)N32)cc(OC)c1OC (stereo not drawn) | 85.9 µM (inactive) | > 100 µM (inactive) | > 100 µM (inactive) | > 100 µM (inactive) | 0.224 µM (active) | > 100 µM (inactive) | > 100 µM (inactive) | 68.4 µM (inactive) | – | > 100 µM (inactive) | > 100 µM (inactive) | 64.1 µM (inactive) | > 100 µM (inactive) | > 100 µM (inactive) | – | 36.1 µM (inactive) | 59 µM (inactive) | > 100 µM (inactive) | – | – |
| CCC(C)CN1C(=O)NC(C)(Cc2ccccc2)C1=O (stereo not drawn) | > 100 µM (inactive) | > 100 µM (inactive) | > 100 µM (inactive) | > 100 µM (inactive) | > 100 µM (inactive) | > 100 µM (inactive) | – | – | > 100 µM (inactive) | > 100 µM (inactive) | > 100 µM (inactive) | > 100 µM (inactive) | > 100 µM (inactive) | > 100 µM (inactive) | > 100 µM (inactive) | – | – | – | – | – |
| C/C=C1/CCC2c3[nH]c4ccccc4c3CCN2C1 (stereo not drawn) | 24.2 µM (inactive) | 66.4 µM (inactive) | > 100 µM (inactive) | > 100 µM (inactive) | 57.5 µM (inactive) | > 100 µM (inactive) | > 100 µM (inactive) | > 100 µM (inactive) | 37.2 µM (inactive) | > 100 µM (inactive) | > 100 µM (inactive) | 58.2 µM (inactive) | > 100 µM (inactive) | > 100 µM (inactive) | 37.2 µM (inactive) | – | – | – | – | – |
| CC1=C/C(=N\NS(=O)(=O)c2ccc([N+](=O)[O-])cc2)CC(C)(C)C1 | 10.4 µM (inactive) | – | 73.5 µM (inactive) | 79.6 µM (inactive) | – | > 100 µM (inactive) | > 100 µM (inactive) | 57.5 µM (inactive) | > 100 µM (inactive) | > 100 µM (inactive) | 86.5 µM (inactive) | > 100 µM (inactive) | > 100 µM (inactive) | 51.6 µM (inactive) | 66.1 µM (inactive) | > 100 µM (inactive) | > 100 µM (inactive) | > 100 µM (inactive) | – | – |
| O=CN/C=C/c1ccccc1 | > 100 µM (inactive) | > 100 µM (inactive) | > 100 µM (inactive) | > 94.8 µM (inactive) | > 100 µM (inactive) | > 100 µM (inactive) | > 100 µM (inactive) | > 100 µM (inactive) | > 100 µM (inactive) | > 100 µM (inactive) | > 100 µM (inactive) | > 100 µM (inactive) | > 100 µM (inactive) | > 100 µM (inactive) | > 100 µM (inactive) | – | > 100 µM (inactive) | – | – | – |
